Test results published in patent publication US12139478B2, “Compounds, compositions and methods” (Denali Therapeutics Inc., priority 2017, dated 2024).
Read-outs that look alike come from different tables or passages of the source.

Tested on: ATF4 translation
Test: ATF4 Nano Luciferase reporter integrated stress response (ISR) assay in H4 ATF4-NLuc cells
Assay type: cell-based, human
Details: Homo sapiens, 0.5 h, H4 ATF4-NLuc (clone 17) cells, compound 30 minutes, then sodium arsenite for 6 additional hours, luminescence readout
Description: Cellular stress leads to activation of the integrated stress response pathway through one of four eukaryotic initiation factor 2a kinases and halts global translation, while allowing for the translation of select transcripts like ATF4 (activating transcription factor 4) that are important for the response to cellular stress. During normal conditions, small open reading frames (ORFs) in the 5′ UTR of ATF4 occupy the ribosome and prevent translation of the coding sequence of ATF4. During stress conditions however, the ribosome scans past these upstream ORFs and preferentially begins translation at the coding sequence of ATF4. In this way, the translation, and thus protein level of ATF4 is a readout of ISR pathway activation. Thus, a fusion of the uORFs and the beginning of the coding sequence of ATF to a common cellular reporter like nano-luciferase allows for a sensitive and high-throughput readout of ISR pathway activity.
Compounds as provided herein were tested in the following assay. The ATF4 Nano Luciferase reporter was constructed by fusing the human full length 5′ untranslated region (5′-UTR) and a small portion of the coding sequence of the ATF4 gene upstream of the Nano Luciferase (NLuc) coding sequence lacking it's start codon. Specifically, nucleotides +1 through +364 (relative to the transcriptional start site) of ATF4 transcript variant 2 (NCBI NM_182810.2) flanked 5′ by EcoRI and 3′ by BamHI restriction enzyme sites were synthesized and cloned into the EcoRI/BamHI cloning sites of pLVX-EF1a-IRES-Puro lentivirus vector (Clontech). Lentiviral particles were produced with Lenti-X single shots (VSV-G, Clontech) according to the manufacturer's instructions and used to transduce a human H4 neuroglioma cell line (ATCC HTB-148). H4 cells were selected with 1.25 μg/mL Puromycin, and clonal cell lines generated by limiting dilution. We utilized this cell line to generate an integrated stress response (ISR) assay to evaluate the activity of ISR pathway inhibitors via luminescence readout. The H4 ATF4-NLuc (clone 17) cell line is plated at a density of […] in 96-well or 384-well respectively in DMEM+[…]. 24-hours later test compounds diluted in dimethyl sulfoxide (DMSO) are added for 30 minutes at 37° C., followed by ISR pathway activation with […] sodium arsenite aqueous solution for 6 additional hours. Nano Glo luciferase reagent (N1150, Promega) is added according to manufacturer instructions and the luminescence signal (corresponding to the level of ATF4 translation and thus ISR pathway activation) is read with a standard plate reader with luminescence detection capabilities. […] In the tables below, activity of the tested compounds is provided, and in Table 3 as follows: […]; ++=IC50 1-10 μM; +=IC50>10 μM.

[1] = read-out: Biological Example 1 (ATF4 translation, IC50 nM)

| Structure (SMILES) | IC50 (read-out: Activity) [nM] | IC50 [1] [nM] |
| --- | --- | --- |
| Cc1ccc(OCC(=O)N[C@@H]2CC[C@@H](c3nnc([C@H]4C[C@@H](OC(F)(F)F)C4)o3)OC2)cc1 [Example 28, 2-(4-methylphenoxy)-N-[(3R,6S)-6-[5-[3-cis-(trifluoromethoxy)cyclobutyl]-1,3,4-oxadiazol-2-yl]tetrahydropyran-3-yl]acetamide] | < 1000 | – |
| O=C(COc1ccc(Cl)c(F)c1)N[C@@H]1CC[C@@H](c2nnc(COC(F)(F)F)o2)OC1 [Example 30, 2-(4-chloro-3-fluorophenoxy)-N-((3R,6S)-6-(5-((trifluoromethoxy)methyl)-1,3,4-oxadiazol-2-yl)tetrahydro-2H-pyran-3-yl)acetamide] | < 1000 | – |
| O=C(COc1ccc(Cl)cc1F)N[C@@H]1CC[C@@H](c2nnc([C@H]3C[C@@H](OC(F)(F)F)C3)o2)OC1 [Example 31, 2-(4-chloro-2-fluoro-phenoxy)-N-[(3R,6S)-6-[5-[3-cis-(trifluoromethoxy)cyclobutyl]-1,3,4-oxadiazol-2-yl]tetrahydropyran-3-yl]acetamide] | < 1000 | – |
| O=C(COc1ccc(F)cc1)N[C@H]1CO[C@H](c2nnc([C@H]3C[C@@H](OC(F)(F)F)C3)o2)C2CC21 (stereo partly drawn) [Example 32, 2-(4-fluorophenoxy)-N-((2S,5R)-2-(5-(3-cis-(trifluoromethoxy)cyclobutyl)-1,3,4-oxadiazol-2-yl)-3-oxabicyclo[4.1.0]heptan-5-yl)acetamide] | < 1000 | – |
| COC1C[C@@H](c2nnc([C@H]3C[C@@H](OC(F)(F)F)C3)o2)OC[C@@H]1NC(=O)COc1ccc(F)cc1 (stereo partly drawn) [Example 33, 2-(4-fluorophenoxy)-N-((3S,6S)-4-methoxy-6-(5-(3-cis-(trifluoromethoxy)cyclobutyl)-1,3,4-oxadiazol-2-yl)tetrahydro-2H-pyran-3-yl)acetamide] | < 1000 | 421 |
| O=C(COc1ccc(F)cc1F)NC12CCC(c3nnc([C@H]4C[C@@H](OC(F)(F)F)C4)o3)(CC1)OC2 [Example 34, 2-(2,4-difluorophenoxy)-N-[1-[5-[3-cis-(trifluoromethoxy)cyclobutyl]-1,3,4-oxadiazol-2-yl]-2-oxabicyclo[2.2.2]octan-4-yl]acetamide] | < 1000 | – |
| O=C(COc1ccc(F)cc1)N[C@H]1CO[C@H](c2nnc([C@H]3C[C@@H](OC(F)(F)F)C3)o2)CC1(F)F [Example 35, N-[(3S,6S)-4,4-difluoro-6-[5-[3-cis-(trifluoromethoxy)cyclobutyl]-1,3,4-oxadiazol-2-yl]tetrahydropyran-3-yl]-2-(4-fluorophenoxy)acetamide] | < 1000 | – |
| CO[C@H]1C[C@@H](NC(=O)COc2ccc(F)cc2)CO[C@@H]1c1nnc([C@H]2C[C@@H](OC(F)(F)F)C2)o1 [Example 36, 2-(4-fluorophenoxy)-N-((3R,5S,6S)-5-methoxy-6-(5-(3-cis-(trifluoromethoxy)cyclobutyl)-1,3,4-oxadiazol-2-yl)tetrahydro-2H-pyran-3-yl)acetamide] | < 1000 | – |
| O=C(COc1ccc(F)cc1F)N[C@@H]1CC[C@@H](c2nnc([C@H]3C[C@@H](OC(F)(F)F)C3)o2)OC1 [Example 37, 2-(2,4-difluorophenoxy)-N-[(3R,6S)-6-[5-[3-cis-(trifluoromethoxy)cyclobutyl]-1,3,4-oxadiazol-2-yl]tetrahydropyran-3-yl]acetamide] | < 1000 | – |
| O=C(COc1ccc(F)cc1)N[C@@H]1CC[C@@H](c2nc(C3CC(OC(F)(F)F)C3)no2)OC1 (stereo partly shown) [Example 38] | < 1000 | – |
| O=C(COc1ccc(C(F)(F)F)nc1)N[C@@H]1CC[C@@H](c2nnc([C@H]3C[C@@H](OC(F)(F)F)C3)o2)OC1 [Example 39, N-[(3R,6S)-6-[5-[3-cis-(trifluoromethoxy)cyclobutyl]-1,3,4-oxadiazol-2-yl]tetrahydropyran-3-yl]-2-[[6-(trifluoromethyl)-3-pyridyl]oxy]acetamide] | < 1000 | 36 |
